Legend:
Type in all cases: cell-based
[1] = biological target: Beta-1 adrenergic receptor (Homo sapiens, UniProt P08588); experiment: Displacement of [125I]-pindolol from recombinant human beta1 adrenergic receptor expressed in CHO Flp-In cells measured after 90 mins by microbeta scintillation counting method
[2] = biological target: T1, Alpha-2A adrenergic receptor (Homo sapiens, UniProt P08913); experiment: Displacement of [3H]-rauwolscine from recombinant human alpha2A adrenergic receptor stably expressed in MDCK cells measured after 90 mins by microbeta scintillation counting method
T1 sequence (P08913 whole entry): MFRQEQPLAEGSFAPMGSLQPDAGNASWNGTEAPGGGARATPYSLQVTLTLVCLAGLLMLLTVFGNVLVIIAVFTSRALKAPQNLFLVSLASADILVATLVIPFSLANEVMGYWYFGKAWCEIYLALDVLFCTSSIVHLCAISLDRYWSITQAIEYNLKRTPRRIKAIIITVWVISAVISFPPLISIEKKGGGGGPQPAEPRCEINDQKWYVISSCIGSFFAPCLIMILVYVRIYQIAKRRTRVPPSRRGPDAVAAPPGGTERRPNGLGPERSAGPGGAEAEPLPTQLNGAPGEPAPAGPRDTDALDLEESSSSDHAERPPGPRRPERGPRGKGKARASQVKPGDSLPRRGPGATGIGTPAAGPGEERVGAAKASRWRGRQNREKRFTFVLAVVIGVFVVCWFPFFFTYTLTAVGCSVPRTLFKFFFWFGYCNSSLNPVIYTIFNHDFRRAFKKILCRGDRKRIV

[3] = biological target: 5-hydroxytryptamine receptor 2B (Homo sapiens, UniProt P41595); experiment: Displacement of [3H]-LSD from recombinant human 5HT2B receptor stably expressed in HEK cells measured after 90 mins by microbeta scintillation counting method
5-hydroxytryptamine receptor 2B, sequence (P41595 whole entry): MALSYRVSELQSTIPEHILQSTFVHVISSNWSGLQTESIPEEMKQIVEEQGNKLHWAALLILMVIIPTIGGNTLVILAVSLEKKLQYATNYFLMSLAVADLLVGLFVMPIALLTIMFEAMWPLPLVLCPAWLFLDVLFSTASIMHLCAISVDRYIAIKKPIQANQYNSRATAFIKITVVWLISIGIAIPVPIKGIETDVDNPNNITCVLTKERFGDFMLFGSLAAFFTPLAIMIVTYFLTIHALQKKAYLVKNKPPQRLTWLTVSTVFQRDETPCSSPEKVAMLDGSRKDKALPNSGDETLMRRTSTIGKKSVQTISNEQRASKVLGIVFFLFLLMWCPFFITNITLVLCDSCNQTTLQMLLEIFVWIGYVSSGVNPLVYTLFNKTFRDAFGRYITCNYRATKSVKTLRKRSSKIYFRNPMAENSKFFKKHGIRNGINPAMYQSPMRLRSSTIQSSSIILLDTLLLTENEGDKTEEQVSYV

[4] = biological target: T2, Muscarinic acetylcholine receptor M1 (Homo sapiens, UniProt P11229); experiment: Displacement of [3H]-QNB/[3H]-NMS from human muscarinic M1 receptor expressed in stable CHO cells after 90 mins by microbeta scintillation counting method
T2 sequence (P11229 whole entry): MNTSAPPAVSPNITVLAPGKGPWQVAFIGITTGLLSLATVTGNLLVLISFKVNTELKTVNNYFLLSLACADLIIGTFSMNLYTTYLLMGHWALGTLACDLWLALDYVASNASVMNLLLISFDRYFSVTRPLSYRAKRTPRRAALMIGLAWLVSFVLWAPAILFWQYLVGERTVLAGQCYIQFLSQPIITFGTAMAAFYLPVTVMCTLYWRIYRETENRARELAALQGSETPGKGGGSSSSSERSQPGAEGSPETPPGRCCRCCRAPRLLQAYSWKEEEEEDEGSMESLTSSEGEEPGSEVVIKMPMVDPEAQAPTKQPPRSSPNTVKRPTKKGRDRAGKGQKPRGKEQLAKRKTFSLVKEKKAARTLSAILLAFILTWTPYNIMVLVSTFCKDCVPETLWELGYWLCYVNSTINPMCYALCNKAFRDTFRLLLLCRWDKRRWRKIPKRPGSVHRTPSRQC

[5] = biological target: 5-hydroxytryptamine receptor 1E (Homo sapiens, UniProt P28566); experiment: Displacement of [3H]5-HT from recombinant human 5HT1E receptor stably expressed in HEK cells measured after 90 mins by microbeta scintillation counting method
5-hydroxytryptamine receptor 1E, sequence (P28566 whole entry): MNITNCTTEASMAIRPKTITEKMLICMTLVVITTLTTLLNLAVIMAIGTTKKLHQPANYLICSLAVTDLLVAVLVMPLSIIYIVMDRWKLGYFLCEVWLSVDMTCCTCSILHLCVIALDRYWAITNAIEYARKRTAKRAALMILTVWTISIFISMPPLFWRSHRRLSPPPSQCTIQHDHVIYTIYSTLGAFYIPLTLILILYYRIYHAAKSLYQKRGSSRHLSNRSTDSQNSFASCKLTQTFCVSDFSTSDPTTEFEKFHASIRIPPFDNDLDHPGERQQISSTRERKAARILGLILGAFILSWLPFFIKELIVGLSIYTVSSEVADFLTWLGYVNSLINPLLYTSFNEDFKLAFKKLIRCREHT

Beta-1 adrenergic receptor, sequence (P08588 whole entry): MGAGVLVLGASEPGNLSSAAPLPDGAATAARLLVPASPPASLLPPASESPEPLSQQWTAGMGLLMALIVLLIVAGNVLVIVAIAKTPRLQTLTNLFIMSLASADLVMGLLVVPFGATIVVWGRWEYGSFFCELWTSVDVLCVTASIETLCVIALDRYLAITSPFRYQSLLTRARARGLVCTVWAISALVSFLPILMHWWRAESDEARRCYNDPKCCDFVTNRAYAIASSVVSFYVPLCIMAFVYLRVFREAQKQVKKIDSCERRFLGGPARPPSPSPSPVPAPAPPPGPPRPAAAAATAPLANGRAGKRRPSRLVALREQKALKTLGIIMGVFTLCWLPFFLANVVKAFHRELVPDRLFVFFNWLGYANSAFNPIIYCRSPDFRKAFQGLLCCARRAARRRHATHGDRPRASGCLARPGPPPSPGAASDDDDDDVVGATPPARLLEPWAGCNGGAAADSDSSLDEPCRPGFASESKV

Row | Compound | Ki [1] | Ki [2] | Ki [3] | Ki [4] | Ki [5]
1 | FC(F)(F)c1cc(Oc2nccc3occc23)ccc1-c1cccc2nccn12 | 8.5 µM | 5.1 µM | 0.83 µM | 9 µM | 9.9 µM
2 | FC(F)(F)c1cc(Oc2nccc3ccsc23)ccc1-c1cccc2nccn12 | 8.5 µM | 2.6 µM | 1.1 µM | 6.6 µM | 7.8 µM
3 | Cc1ncc2nccn2c1-c1ccc(Oc2nccc3occc23)cc1C(F)(F)F | 9.6 µM | 6.8 µM | 6.7 µM | 8.5 µM | 8.9 µM
4 | Cc1cc(Oc2nccc3occc23)ccc1-c1c(C)ncc2nccn12 | 7.6 µM | 3.4 µM | 4.1 µM | 8.8 µM | 9.8 µM

— ChEMBL document CHEMBL4390674, “Defining Structure-Functional Selectivity Relationships (SFSR) for a Class of Non-Catechol Dopamine D1 Receptor Agonists” (J Med Chem, 2019)
